Data from US20220324815A1, “2-PHENOXY-PYRIMIDINE DERIVATIVES AS HERBICIDAL COMPOUNDS” (SYNGENTA CROP PROTECTION AG, priority 2019, published 2022).

How the values were obtained:
Type in all cases: in vivo
Conditions in all cases: 250 g/ha unless otherwise stated, evaluated after 13 days, five-point scale
[1] = system: Amaranthus retoflexus (AMARE); assay: Test 1 glasshouse herbicide test, pre-emergence application (Table B2)
Description: (§1) Seeds of a variety of test species are sown in standard soil in pots (Lolium perenne (LOLPE), Solanum nigrum (SOLNI), Amaranthus retoflexus (AMARE), Setaria faberi (SETFA), Echinochloa crus-galli (ECHCG) and Ipomoea hederacea (IPOHE)). After cultivation for one day (pre-emergence) or after 8 days cultivation (post-emergence) under controlled conditions in a glasshouse (at 24/16° C., day/night; 14 hours light; 65% humidity), the plants are sprayed with an aqueous spray solution derived from the formulation of the technical active ingredient in acetone/water (50:50) solution containing 0.5% Tween 20 (polyoxyethelyene sorbitan monolaurate, CAS RN 9005-64-5). Compounds are applied at 250 g/ha unless otherwise stated. The test plants are then grown in a glasshouse under controlled conditions in a glasshouse (at 24/16° C., day/night; 14 hours light; 65% humidity) and watered twice daily. After 13 days for pre and post-emergence, the test is evaluated for the percentage damage caused to the plant. The biological activities (% phytotoxicity) are shown in Tables B1 and B2 below using a five-point scale (5=81 to 100%; 4=61 to 80%; 3=41 to 60%; 2=21 to 40%; 1=0 to 20%).

[2] = system: Echinochloa crus-galli (ECHCG); assay: as above
Description: as §1

[3] = system: Ipomoea hederacea (IPOHE); assay: as above
Description: as §1

Setaria faberi (SETFA) [4] = assay: as above
Description: as §1

[5] = system: Amaranthus retoflexus (AMARE); assay: Test 1 glasshouse herbicide test, post-emergence application (Table B1)
Description: as §1

[6] = system: Echinochloa crus-galli (ECHCG); assay: as above
Description: as §1

[7] = system: Ipomoea hederacea (IPOHE); assay: as above
Description: as §1

Setaria faberi (SETFA) [8] = assay: as above
Description: as §1

Structure (SMILES) | % phytotoxicity AMARE, pre-emergence application [1] | % phytotoxicity ECHCG, pre-emergence application [2] | % phytotoxicity IPOHE, pre-emergence application [3] | % phytotoxicity SETFA, pre-emergence application (Setaria faberi (SETFA) [4]) | % phytotoxicity AMARE, post-emergence application [5] | % phytotoxicity ECHCG, post-emergence application [6] | % phytotoxicity IPOHE, post-emergence application [7] | % phytotoxicity SETFA, post-emergence application (Setaria faberi (SETFA) [8])
COCCSc1ccccc1Oc1ncc(Cl)cn1 [Compound A41] | 1 (1=0 to 20%) | 2 (2=21 to 40%) | 2 (2=21 to 40%) | 2 (2=21 to 40%) | 3 (3=41 to 60%) | 3 (3=41 to 60%) | 3 (3=41 to 60%) | 2 (2=21 to 40%)
N#Cc1cccc(Oc2ncc(Cl)cn2)c1S(=O)(=O)CCCCCC(F)(F)F [Compound A92] | 5 (5=81 to 100%) | 4 (4=61 to 80%) | 1 (1=0 to 20%) | 4 (4=61 to 80%) | 5 (5=81 to 100%) | 3 (3=41 to 60%) | 2 (2=21 to 40%) | 2 (2=21 to 40%)
COCCS(=O)(=O)c1ccccc1Oc1ncc(Cl)cn1 [Compound A42] | 1 (1=0 to 20%) | 1 (1=0 to 20%) | 1 (1=0 to 20%) | 1 (1=0 to 20%) | 2 (2=21 to 40%) | 1 (1=0 to 20%) | 1 (1=0 to 20%) | 1 (1=0 to 20%)
FC(F)CSc1ccccc1Oc1ncc(Cl)cn1 [Compound A61] | 5 (5=81 to 100%) | 3 (3=41 to 60%) | 2 (2=21 to 40%) | 4 (4=61 to 80%) | 5 (5=81 to 100%) | 2 (2=21 to 40%) | 2 (2=21 to 40%) | 2 (2=21 to 40%)
O=S(=O)(CCC(F)=C(F)F)c1ccccc1Oc1ncc(Cl)cn1 [Compound A73] | 5 (5=81 to 100%) | 5 (5=81 to 100%) | 1 (1=0 to 20%) | 4 (4=61 to 80%) | 4 (4=61 to 80%) | 3 (3=41 to 60%) | 1 (1=0 to 20%) | 3 (3=41 to 60%)
CCCC(C)CSc1ccccc1Oc1ncc(Cl)cn1 (racemic) [Compound A69] | 1 (1=0 to 20%) | 3 (3=41 to 60%) | 1 (1=0 to 20%) | 4 (4=61 to 80%) | 4 (4=61 to 80%) | 4 (4=61 to 80%) | 1 (1=0 to 20%) | 2 (2=21 to 40%)
N#Cc1cccc(Oc2ncc(Cl)cn2)c1S(=O)(=O)CCCCC(F)(F)F [Compound A91] | 5 (5=81 to 100%) | 5 (5=81 to 100%) | 5 (5=81 to 100%) | 5 (5=81 to 100%) | 5 (5=81 to 100%) | 5 (5=81 to 100%) | 4 (4=61 to 80%) | 4 (4=61 to 80%)
Clc1cnc(Oc2ccccc2SCc2cccc(Cl)c2)nc1 [Compound A66] | 1 (1=0 to 20%) | 2 (2=21 to 40%) | 1 (1=0 to 20%) | 2 (2=21 to 40%) | 4 (4=61 to 80%) | 4 (4=61 to 80%) | 2 (2=21 to 40%) | 3 (3=41 to 60%)
N#Cc1cccc(Oc2ncc(Cl)cn2)c1SCCOCC(F)(F)F [Compound A107] | 5 (5=81 to 100%) | 5 (5=81 to 100%) | 3 (3=41 to 60%) | 5 (5=81 to 100%) | 5 (5=81 to 100%) | 5 (5=81 to 100%) | 2 (2=21 to 40%) | 4 (4=61 to 80%)
CCCCCCS(=O)(=O)c1ccccc1Oc1ncc(Cl)cn1 [Compound A77] | 4 (4=61 to 80%) | 3 (3=41 to 60%) | 1 (1=0 to 20%) | 1 (1=0 to 20%) | 2 (2=21 to 40%) | 1 (1=0 to 20%) | 1 (1=0 to 20%) | 1 (1=0 to 20%)
FC(F)CCSc1c(Cl)cccc1Oc1ncc(Cl)cn1 [Compound A94] | 5 (5=81 to 100%) | 5 (5=81 to 100%) | 3 (3=41 to 60%) | 5 (5=81 to 100%) | 5 (5=81 to 100%) | 5 (5=81 to 100%) | 3 (3=41 to 60%) | 5 (5=81 to 100%)
C#CCS(=O)(=O)c1ccccc1Oc1ncc(Cl)cn1 [Compound A46] | 1 (1=0 to 20%) | 1 (1=0 to 20%) | 1 (1=0 to 20%) | 1 (1=0 to 20%) | 1 (1=0 to 20%) | 1 (1=0 to 20%) | 1 (1=0 to 20%) | 1 (1=0 to 20%)
N#Cc1cccc(Oc2ncc(Br)cn2)c1S(=O)(=O)CCCCC(F)(F)F [Compound A120] | 4 (4=61 to 80%) | 3 (3=41 to 60%) | 5 (5=81 to 100%) | 4 (4=61 to 80%) | 4 (4=61 to 80%) | 3 (3=41 to 60%) | 4 (4=61 to 80%) | 3 (3=41 to 60%)
CCC(C)S(=O)(=O)c1ccccc1Oc1ncc(Cl)cn1 (stereo not shown) [Compound A88] | 5 (5=81 to 100%) | 1 (1=0 to 20%) | 2 (2=21 to 40%) | 5 (5=81 to 100%) | 2 (2=21 to 40%) | 1 (1=0 to 20%) | 1 (1=0 to 20%) | 1 (1=0 to 20%)
COc1cnc(Oc2cccc(C#N)c2S(=O)(=O)CCCC(F)(F)F)nc1 [Compound A112] | 3 (3=41 to 60%) | 1 (1=0 to 20%) | 3 (3=41 to 60%) | 1 (1=0 to 20%) | 2 (2=21 to 40%) | 1 (1=0 to 20%) | 2 (2=21 to 40%) | 1 (1=0 to 20%)
Clc1cnc(Oc2ccccc2SCCn2cc(Cl)cn2)nc1 [Compound A57] | 4 (4=61 to 80%) | 3 (3=41 to 60%) | 1 (1=0 to 20%) | 4 (4=61 to 80%) | 5 (5=81 to 100%) | 4 (4=61 to 80%) | 2 (2=21 to 40%) | 4 (4=61 to 80%)
N#Cc1cccc(Oc2ncc(Cl)cn2)c1S(=O)(=O)CCCOC(F)(F)F [Compound A117] | 5 (5=81 to 100%) | 4 (4=61 to 80%) | 5 (5=81 to 100%) | 5 (5=81 to 100%) | 5 (5=81 to 100%) | 4 (4=61 to 80%) | 3 (3=41 to 60%) | 4 (4=61 to 80%)
